Measured values: patent US6509369B2, “Anti-inflammatory compounds” (Ortho-McNeil Pharmaceutical, Inc., priority 1997, dated 2003)
pIC50: −log10 of the molar value.

Columns and labels:
[1] = target: T1, human glucocorticoid receptor (hGR) (Homo sapiens, UniProt P04150); assay: human glucocorticoid receptor binding assay (displacement of 3(H) Triamcinolone acetonide); details: for hGR, value given as %: concentration not given
T1 construct: made in house; host or cells: Sf21 insect cells infected with baculovirus hGR, OR IM9 lymphoblast cell line (endogenous hGR)
T1 sequence (P04150 1-777): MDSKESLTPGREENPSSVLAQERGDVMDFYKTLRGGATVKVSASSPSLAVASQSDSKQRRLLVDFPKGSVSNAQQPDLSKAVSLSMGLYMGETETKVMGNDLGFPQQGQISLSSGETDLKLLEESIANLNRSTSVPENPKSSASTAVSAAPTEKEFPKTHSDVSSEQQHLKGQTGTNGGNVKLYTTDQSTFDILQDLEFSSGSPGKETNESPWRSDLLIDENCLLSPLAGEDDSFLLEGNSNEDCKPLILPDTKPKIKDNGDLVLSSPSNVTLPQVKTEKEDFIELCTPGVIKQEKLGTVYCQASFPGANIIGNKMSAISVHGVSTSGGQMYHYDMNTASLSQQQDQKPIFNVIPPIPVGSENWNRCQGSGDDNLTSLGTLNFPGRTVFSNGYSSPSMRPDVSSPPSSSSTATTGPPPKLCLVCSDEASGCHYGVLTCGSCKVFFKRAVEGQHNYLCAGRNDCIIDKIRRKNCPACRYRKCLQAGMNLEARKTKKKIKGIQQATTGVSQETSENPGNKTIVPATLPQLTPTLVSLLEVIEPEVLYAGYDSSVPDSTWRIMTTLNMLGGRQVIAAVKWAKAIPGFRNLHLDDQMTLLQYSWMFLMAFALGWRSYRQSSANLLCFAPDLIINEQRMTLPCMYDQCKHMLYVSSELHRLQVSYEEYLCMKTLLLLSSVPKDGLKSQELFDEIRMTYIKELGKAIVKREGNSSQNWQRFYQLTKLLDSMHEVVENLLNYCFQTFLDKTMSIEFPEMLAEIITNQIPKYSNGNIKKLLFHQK
Procedure: A human glucocorticoid receptor binding assay was carried out to determine the extent to which the compounds of this invention have the ability to bind to human glucocorticoid receptors. This binding ability may be indicative of the antiinflammatory activity of the compound. The test was carried out as follows.
Human glucocorticoid receptors were prepared from either insect cells (Sf21) infected with baculovirus hGR or from a lymphoblast cell line which expresses high levels of endogenous hGR (IM9). The receptor binding reactions, with or without test compounds, were set up in 96-well microtiter plates which were previously siliconized with SIGMACOTE™, a chlorinated organopolysiloxane in heptane. The binding components, 3(H) Triamcinolone acetonide (TAA), glycerol/molybdate-containing buffer and unlabeled compounds were added to the wells using a combination of BIOMEK laboratory automation system and repeat pipettes. After four hours of incubation, the samples were precipitated with polyethylene glycol and filtered through Whatman GF/F paper using a TOMTEK cell harvester. The filter mate with 96 samples were bound to a solid-phase scintillant and directly counted in a BETAPLATE counter. […] The activity of test compounds to displace 3(H) TAA binding to hGR is also expressed as percent inhibition at 1 μM.

[2] = system: human progesterone receptor (hPR); assay: human progesterone receptor binding assay (displacement of 3(H) R5020 Promegestone)
Procedure: A human progesterone receptor binding assay was performed in order to determine selectivity of the compounds, as follows. Human progesterone receptors were prepared from either insect cells (SF21) infected with baculovirus hPR A, or from a breast cancer cell line, T47D, which expresses high levels of endogenous hPR. The receptor binding reactions, with or without test compounds, were set up in 96-well microtiter plates which were previously siliconized with SIGMACOTE. The binding components, 3(H) R5020 Promegestone, a high affinity ligand for the progesterone receptors, glycerol/molybdate-containing buffer and unlabeled compounds were added to the wells using a combination of BIOMEK laboratory automation system and repeat pipettes. After overnight incubation, the samples were precipitated with polyethylene glycol and filtered through Whatman GF/F paper using a TOMTEK cell harvester. The filter mate with 96 samples were bound to a solid-phase scintillant and directly counted in the BETAPLATE counter. Only those compounds that were active in the human glucocorticoid receptor assay set forth in Example 30 were used for progesterone receptor binding to determine cross-reactivity profiles, if any. The activity of test compounds to displace 3(H) R5020 binding to hPR is expressed as percent inhibition at the two concentrations, 10^−6 and 10^−5 Molar.

[3] = system: oxazolone-induced ear swelling (MOCH) in albino male CD-1 mice; assay: mouse oxazolone-induced contact hypersensitization (MOCH) ear swelling; type: in vivo; details: topical to mouse ear, 1 mg, one hour after oxazolone challenge, ear biopsy weight at 24 hours
Procedure: Several triphenylpropanamide compounds of this invention, having varying affinities for the human glucocorticoid receptor, were tested for topical antiinflammatory activity in mouse ear inflammation models. […] Compounds having receptor affinities closer to hydrocortisone were as nearly active as hydrocortisone in suppressing mouse oxazolone-induced contact hypersensitization (MOCH) and phorbol ester-induced ear edema. The in vivo studies of this example were conducted as follows.
In determining the MOCH using the compounds of this invention, albino male CD-1 mice, 7-9 weeks old were induced on the shaved abdomen with 50 μl of 3% oxazolone in acetone/corn oil (Day 0). On Day 5, a 20 μl volume of 2% oxazolone in acetone was applied to the dorsal left ear of the mouse . Compounds (made in ethanol/propylene glycol, 70:30) were applied to the left ear in 20 μl volume, one hour after oxazolone challenge. The right ear was not treated. The mice were sacrificed by carbon dioxide inhalation 24 hours after oxazolone challenge, the left and right ears were removed and a 7 mm biopsy was removed from each ear and weighed. The difference in biopsy weights between the right and left ears was calculated. Antiinflammatory effects of compounds were evident as an inhibition of the increase in ear weight.

| pIC50 [1] | hPR % inh 10 μM [2] | hGR, value given as % [1] | Compound | Oxazolone Ear Swelling (MOCH) % inhibition vs. Vehicle at 1 mg [3] |
| --- | --- | --- | --- | --- |
| 6.87 | −23% | – | O=C(Cc1ccccc1Cl)NCC(c1ccccc1)C(c1ccccc1)c1ccccc1 (stereo not drawn) [Compound 2] | – |
| 6.32 | 4% | – | O=C(Cc1ccc(Cl)cc1)NCC(c1ccccc1)C(c1ccccc1)c1ccccc1 (stereo not drawn) [Compound 3] | – |
| 6.28 | 12% | – | Cc1ccc(CC(=O)NCC(c2ccccc2)C(c2ccccc2)c2ccccc2)cc1 (stereo not drawn) [Compound 4] | – |
| 6.04 | 11.6% | – | COc1ccc(CC(=O)NCC(c2ccccc2)C(c2ccccc2)c2ccccc2)cc1OC (stereo not drawn) [Compound 7] | – |
| 6.47 | 3% | – | O=C(Cc1c(Cl)cccc1Cl)NCC(c1ccccc1)C(c1ccccc1)c1ccccc1 (stereo not drawn) [Compound 8] | – |
| 6.11 | 15% | – | O=C(Cc1ccccc1C(F)(F)F)NCC(c1ccccc1)C(c1ccccc1)c1ccccc1 (stereo not drawn) [Compound 10] | – |
| 6.08 | 20% | – | O=C(Cc1cccc(C(F)(F)F)c1)NCC(c1ccccc1)C(c1ccccc1)c1ccccc1 (stereo not drawn) [Compound 11] | – |
| 5.82 | 15% | – | O=C(Cc1ccc(C(F)(F)F)cc1)NCC(c1ccccc1)C(c1ccccc1)c1ccccc1 (stereo not drawn) [Compound 12] | – |
| 7.14 | 18% | – | O=C(Cc1ccccc1)NCC(c1ccc(Cl)cc1)C(c1ccccc1)c1ccccc1 (stereo not drawn) [Compound 14] | – |
| 6.21 | 14.1% | – | O=C(Cc1ccccc1)NCC(c1ccccc1)C(c1ccc(F)cc1)c1ccc(F)cc1 (stereo not drawn) [Compound 18, N-[3,3-bis-(4-fluorophenyl)-2-phenylpropyl]-2-phenylacetamide] | – |
| 6.85 | 24% | – | O=C(CCc1ccccc1)NCC(c1ccccc1)C(c1ccccc1)c1ccccc1 (stereo not drawn) [Compound 19] | – |
| 7.24 | 9% | – | COc1ccccc1CCC(=O)NCC(c1ccccc1)C(c1ccccc1)c1ccccc1 (stereo not drawn) [Compound 20] | – |
| 6.17 | 10% | – | O=C(CCCc1ccccc1)NCC(c1ccccc1)C(c1ccccc1)c1ccccc1 (stereo not drawn) [Compound 24] | – |
| 7.68 | 17% | – | O=C(Cc1cccs1)NCC(c1ccc(Cl)cc1)C(c1ccccc1)c1ccccc1 (stereo not drawn) [Compound 34] | – |
| 7.60 | 22% | – | O=C(Cc1ccsc1)NCC(c1ccccc1)C(c1ccccc1)c1ccccc1 (stereo not drawn) [Compound 36] | – |
| 7.17 | 18% | – | O=C(NCC(c1ccccc1)C(c1ccccc1)c1ccccc1)c1ccsc1 (stereo not drawn) [Compound 42] | – |
| 7.51 | 5% | – | O=C(NCC(c1ccccc1)C(c1ccccc1)c1ccccc1)c1cccs1 (stereo not drawn) [Compound 45] | – |
| 6.38 | 17% | – | O=C(Cc1c[nH]c2ccccc12)NCC(c1ccccc1)C(c1ccccc1)c1ccccc1 (stereo not drawn) [Compound 47] | – |
| 6.22 | 19% | – | O=C(CCc1c[nH]c2ccccc12)NCC(c1ccccc1)C(c1ccccc1)c1ccccc1 (stereo not drawn) [Compound 48] | – |
| 6.70 | 11% | – | O=C(Cc1ccccn1)NCC(c1ccccc1)C(c1ccccc1)c1ccccc1 (stereo not drawn) [Compound 49] | – |

More lines, now with the values behind:

| Compound | pIC50 [1] | hPR % inh 10 μM [2] | hGR, value given as % [1] | Oxazolone Ear Swelling (MOCH) % inhibition vs. Vehicle at 1 mg [3] |
| --- | --- | --- | --- | --- |
| O=C(CCCc1cccs1)NCC(c1ccccc1)C(c1ccccc1)c1ccccc1 (stereo not drawn) [Compound 37] | 6.30 | 4% | – | – |
| O=S(=O)(NCC(c1ccccc1)C(c1ccccc1)c1ccccc1)c1cccs1 (stereo not drawn) [Compound 40] | 6.82 | 22% | – | – |
| O=C(Cc1ccccc1)NCC(c1ccccc1)C1c2ccccc2-c2ccccc21 (stereo not drawn) [Compound 66] | 6.05 | 18% | – | – |
| O=C(Cc1cccs1)NCC(c1ccccc1)C1c2ccccc2-c2ccccc21 (stereo not drawn) [Compound 71] | 6.09 | 16% | – | – |
| O=C(Cc1ccccc1)NCC1(c2ccccc2)CC1(c1ccccc1)c1ccccc1 (stereo not drawn) [Compound 78] | 5.92 | 6% | – | – |
| COc1ccc(CC(=O)NCC2(c3ccccc3)CC2(c2ccccc2)c2ccccc2)cc1OC (stereo not drawn) [Compound 79] | 6.00 | 24.5% | – | – |
| O=C(Cc1ccccc1Cl)NCC1(c2ccccc2)CC1(c1ccccc1)c1ccccc1 (stereo not drawn) [Compound 80, N-(2chlorophenyl)acetyl-1,2,2-triphenylcyclopropylmethylamine] | 6.02 | −11% | – | – |
| O=C(NCC1(c2ccccc2)CC1(c1ccccc1)c1ccccc1)C(c1ccccc1)c1ccccc1 (stereo not drawn) [Compound 82] | 6.29 | −20.4% | – | – |
| CCCC(=O)NCC1(c2ccccc2)CC1(c1ccccc1)c1ccccc1 (stereo not drawn) [Compound 83] | 6.24 | 45% | – | – |
| CC(C)C(=O)NCC1(c2ccccc2)CC1(c1ccccc1)c1ccccc1 (stereo not drawn) [Compound 84] | 6.21 | 15.3% | – | – |
| CC(C)CC(=O)NCC1(c2ccccc2)CC1(c1ccccc1)c1ccccc1 (stereo not drawn) [Compound 85] | – | 7.2s % | 68% | 16% |
| CC(C)(C)C(=O)NCC1(c2ccccc2)CC1(c1ccccc1)c1ccccc1 (stereo not drawn) [Compound 86] | 6.18 | 12.6% | – | – |
| CCCCC(=O)NCC1(c2ccccc2)CC1(c1ccccc1)c1ccccc1 (stereo not drawn) [Compound 87] | 6.17 | 19.8% | – | – |
| O=C(Cc1ccsc1)NCC1(c2ccccc2)CC1(c1ccccc1)c1ccccc1 (stereo not drawn) [Compound 89] | 6.24 | 22% | – | – |
| O=C(NCC1(c2ccccc2)CC1(c1ccccc1)c1ccccc1)Nc1ccccc1 (stereo not drawn) [Compound 92] | 5.83 | −1% | – | – |
| O=C(NCC1(c2ccccc2)CC1(c1ccccc1)c1ccccc1)Nc1ccccc1F (stereo not drawn) [Compound 93] | – | 33.9% | 17% | 26% |
| COc1ccccc1NC(=O)NCC1(c2ccccc2)CC1(c1ccccc1)c1ccccc1 (stereo not drawn) [Compound 94] | – | −18.6% | 13% | 35% |
| O=C(NCc1ccccc1)NCC1(c2ccccc2)CC1(c1ccccc1)c1ccccc1 (stereo not drawn) [Compound 95] | – | −14.3% | 4% | 16% |
| O=C(NCC1(c2ccccc2)CC1(c1ccccc1)c1ccccc1)Oc1ccccc1 (stereo not drawn) [Compound 96] | 6.03 | 9.9% | – | – |
| O=C(NCC1(c2ccccc2)CC1(c1ccccc1)c1ccccc1)Oc1ccc(Cl)cc1 (stereo not drawn) [Compound 97] | 6.80 | 12.5% | – | – |
